Results reported in article PMC8624998, “Synthesis and Antiproliferative Evaluation of 3-Chloroazetidin-2-ones with Antimitotic Activity: Heterocyclic Bridged Analogues of Combretastatin A-4” (Pharmaceuticals, 2021).
Where two headings read alike, the source gives them in different places.

Tests used:
[1] = system: NCI-H332M; assay: NCI-60 5 dose screen, NSC Lung Cancer; type: cell-based; settings: Homo sapiens
[2] = system: TK-10; assay: NCI-60 5 dose screen, Renal Cancer; type: cell-based; settings: Homo sapiens
[3] = system: OVCAR-5; assay: NCI-60 5 dose screen, Ovarian Cancer; type: cell-based; settings: Homo sapiens
[4] = system: COLO205; assay: NCI-60 5 dose screen, Colon Cancer; type: cell-based; settings: Homo sapiens, COLO 205
[5] = system: MCF-7 cells; assay: Lactate dehydrogenase (LDH) assay for cytotoxicity; type: cell-based; settings: Homo sapiens, MCF7; MCF-7, compound concentration 10 μM, 24 h; read-out: Lactate Dehydrogenase assay: % cell lysis (cell death)
Experimental: The toxicity and selectivity of 10n towards normal cells was investigated in the non-tumourigenic cell line HEK-293T (normal human epithelial embryonic kidney cells). […] The cytotoxic effect of selected 3-chloro-β-lactams 10e, 10f, 10i, 10n and 3,3-dichloro-β-lactams 11e and 11n in MCF-7 cells was initially determined using the lactate dehydrogenase (LDH) assay.
The cytotoxicity of selected compounds was determined using the CytoTox 96 non-radioactive cytotoxicity assay (Promega Corporation, Madison, WI, USA). Briefly, MCF-7 cells were seeded in a 96-well plate (200 μL per well), at a density of 2.5 × 10^4 cells/mL, and incubated for 24 h. The cells were then treated with selected β-lactam compounds as described above for the cell viability assay. […] Supernatant (50 μL) was removed from each well to a 96-well plate. Reconstituted ‘CytoTox 96® Reagent (50 μL) was added to each well and the plate was placed in the dark at 20 °C for 30 min. ‘Stop solution’ (50 μL) was added to each well and the samples were analysed at 490 nm using a Dynatech MR5000 plate reader. The percentage cell death at 10 μM was calculated.

[6] = NCI 60 cell line screen, full panel; type: cell-based; settings: human
Text: (§1) The novel 3-haloazetidinone compounds 10e, 11n and 16d were selected by NCI for further biological evaluation in the NCI 60 cell line screen following an initial Tier 1 profiling screen. […]. these values were in the sub-micromolar range for all the cell lines tested except for the breast cancer cell line T-47D, where the progesterone receptors are not regulated by estradiol. […]. [table]

[7] = system: NCI 60 cell line panel; assay: NCI 60 cell line screen, full panel; type: cell-based; settings: for GI50: Homo sapiens; for LC50: read-out: LC50 (mean over NCI 60 panel)
Text: as §1

[8] = system: U251; assay: NCI-60 5 dose screen, CNS Cancer; type: cell-based; settings: Homo sapiens, U-251
[9] = system: ACHN; assay: NCI-60 5 dose screen, Renal Cancer; type: cell-based; settings: Homo sapiens
[10] = system: EKVX; assay: NCI-60 5 dose screen, NSC Lung Cancer; type: cell-based; settings: Homo sapiens
[11] = system: UACC-257; assay: NCI-60 5 dose screen, Melanoma; type: cell-based; settings: Homo sapiens
[12] = system: NCI-H23; assay: NCI-60 5 dose screen, NSC Lung Cancer; type: cell-based; settings: Homo sapiens
[13] = system: OVCAR-4; assay: NCI-60 5 dose screen, Ovarian Cancer; type: cell-based; settings: Homo sapiens
[14] = system: CAKI-1; assay: NCI-60 5 dose screen, Renal Cancer; type: cell-based; settings: Homo sapiens
[15] = system: colchicine binding site of β-tubulin; assay: Colchicine binding-site (EBI) assay; type: cell-based, human; settings: MCF-7, 10 μM for 2 h, then EBI 100 μM
Experimental: A colchicine-site binding assay was performed to evaluate the interaction of compound 10n at the colchicine binding site of tubulin using N,N-ethylenebis(iodoacetamide) (EBI). EBI crosslinks the Cys-239 and Cys-354 residues of the colchicine binding site of β-tubulin, alkylating the sulfhydryl group of cysteine. […] Microtubule targeting compounds binding at the colchicine site, e.g., colchicine and CA-4, prevent the formation of the β-tubulin-EBI adduct. […] Control samples (ethanol 0.1% (v/v)) indicated the formation of the β-tubulin-EBI adduct at a slightly lower position (Figure 9). […] These tubulin polymerisation inhibitors act on the colchicine site of tubulin and compete with EBI to bind the colchicine binding site and hinder the cross-linking of EBI with β-tubulin.
The assay was performed as we have previously reported. N,N′-Ethylene-bis(iodoacetamide) (EBI) (Santa Cruz Biotechnology) was dissolved in ethanol (100 μM). MCF-7 cells were seeded at a density of 5 × 10^4 cells/well in 6-well plates and incubated overnight. […]
Figure 9 Effects of compound 10n on the inhibition of the bisthioalkylation of Cys239 and Cys354 of β-tubulin by N,N′-ethylene-bis(iodoacetamide) (EBI) in MCF-7 cells. […] Cells were harvested, lysed and analysed using […] and Western blotting for β-tubulin and β-tubulin-EBI adducts. […]

[16] = system: MCF-7 cells; assay: Annexin V/PI apoptotic assay; settings: for total apoptotic cells (Annexin V-stained positive cells): 48 h
Experimental: The Annexin V/Propidium Iodide (PI) assay was used to detect both early- and late-stage apoptosis using flow cytometry, as previously reported [34]. Early apoptosis is detected by the presence of phosphatidylserine (PS) on the outer surface of the cell membrane. […] Cells were then analysed using flow cytometry. […] Cells were washed in binding buffer and then re-suspended in PI-containing binding buffer (1:1000). Samples were analysed without delay using the BD Accuri flow cytometer and the data analysed with GraphPad Prism software.
MCF-7 breast cancer cells were treated with 10n (50 and 500 nM) or CA-4 (50 nM) or control vehicle (0.1% ethanol (v/v)). The percentage of apoptotic cells was determined by staining with Annexin V-FITC and propidium iodide (PI). […] Values represent the mean of three independent experiments.

[17] = NCI 60 cancer cell line panel (mean over the panel), NCI 60 panel mean, read-out: LC50 (mean over NCI 60 panel)
[18] = 60 cell, NCI 60 panel mean, read-out: GI50 (mean over NCI 60 panel)
[19] = 60 cell, NCI 60 panel mean, read-out: MID GI50 (full panel mean-graph mid-point)
[20] = Homo sapiens, MCF7, 48 h, read-out: Viable

SMILES	GI50 [1]	GI50 ([2]; read-out: GI50)	GI50 ([3]; read-out: GI50)	GI50 ([4]; COLO205, read-out: GI50)	cytotoxicity at 10 µM [5]	LC50 [6, 17]	GI50 [7, 18]	GI50 [7, 19]	GI50 ([8]; U251, read-out: GI50)	GI50 ([10]; read-out: GI50)	GI50 ([11]; read-out: GI50)	GI50 ([12]; read-out: GI50)	GI50 ([13]; read-out: GI50)	TGI (mean over NCI 60 panel) ([7]; NCI 60 panel mean)	β-tubulin-EBI adduct formation [15]	total apoptotic cells (Annexin V-stained positive cells) ([16]; 50 nM)	viability at 0.05 µM [16, 20]	LC50 ([7]; NCI 60 panel mean)	also measured
COc1ccc([C@H]2[C@H](Cl)C(=O)N2c2cc(OC)c(OC)c(OC)c2)cc1 (relative stereo) [Compound 10e trans, Trans-3-chloro-1-(3,4,5-trimethoxyphenyl)-4-(4-methoxyphenyl) azetidin-2-one]	0.962 µM	92.2 nM	80.6 nM	49.2 nM	5%	81.3 µM	74.1 nM	74.1 nM	37 nM	69.4 nM	23.3 µM	31.2 nM	106 nM						LC50 ([6]; NCI 60 cancer cell line panel, individual cell lines, all but one cell line for 10e, all but four cell lines for 11n, read-out: LC50 in individual cell lines): > 100 µM; LC50 ([7]; NCI 60 panel mean, listed as 10e): 91.2 µM; GI50 ([9]; read-out: GI50): 97.1 nM; GI50 ([14]; read-out: GI50): 122 nM
COc1ccc(/C=C\c2cc(OC)c(OC)c(OC)c2)cc1O [CA-4, Combretastatin A-4]					12%		99 nM							10.30 µM	Tubulin EBI adduct formation was inhibited	34.6%	61.8%		
COc1ccc(C2C(Cl)C(=O)N2c2cc(OC)c(OC)c(OC)c2)cc1O (stereo not drawn) [Compound 10n, 3-Chloro-4-(3-hydroxy-4-methoxy-phenyl)-1-(3,4,5-trimethoxyphenyl)azetidin-2-one]					17%										Tubulin EBI adduct formation was inhibited	29.8%	66.9%		total apoptotic cells (Annexin V-stained positive cells) ([16]; 500 nM): 37%; viability at 0.5 µM [16, 20]: 58.5%
CCSc1ccc(C2C(Br)C(=O)N2c2cc(OC)c(OC)c(OC)c2)cc1 (stereo not drawn) [Compound 16d, 3-Bromo-4-(4-(ethylthio)phenyl)-1-(3,4,5-trimethoxyphenyl)azetidin-2-one]	7.37 µM	14300 nM	431 nM	230 nM		83.2 µM		407 nM	345 nM	639 nM	14.3 µM	478 nM	1430 nM					81.3 µM	
COc1ccc(C2N(c3cc(OC)c(OC)c(OC)c3)C(=O)C2(Cl)Cl)cc1O (stereo not drawn) [Compound 11n, 3,3-Dichloro-4-(3-hydroxy-4-methoxyphenyl)-1-(3,4,5-trimethoxyphenyl)azetidin-2-one]					8%									10.00 µM				83.2 µM	GI50 [2]: 126 nM; GI50 [3]: 312 nM; GI50 [4]: 2910 nM; LC50 ([6]; NCI 60 panel mean, read-out: LC50 (mean over NCI 60 panel)): 91.2 µM; LC50 ([6]; all but one cell line for 10e, all but four cell lines for 11n, read-out: LC50 in individual cell lines): > 100 µM; GI50 ([7]; 60 cell, read-out: GI50 (mean over NCI 60 panel), NCI 60 panel mean): 53.7 nM; GI50 ([7]; 60 cell, read-out: GI50 in individual cell lines, 43 of the cell lines investigated): < 100 nM; GI50 ([7]; 60 cell, read-out: GI50 value, CNS cancer cell lines): 19.9 to 51.4 nM; GI50 ([7]; 60 cell, read-out: GI50 value, non-small cell lung cancer cell lines): 16.4 to 46.4 nM; GI50 ([7]; 60 cell, read-out: GI50 value, prostate cancer cell lines): 35.3 to 35.9 nM; GI50 ([7]; 60 cell, read-out: MID GI50 (full panel mean-graph mid-point), NCI 60 panel mean): 53.7 nM; GI50 ([7]; read-out: GI50 value, breast cancer cell lines apart from T-47D): 22.6 to 42.8 nM; GI50 [8]: 32.5 nM; GI50 [9]: 51.1 nM; GI50 [10]: 46.4 nM; GI50 [11]: 0.158 µM; GI50 [12]: 24.2 nM; GI50 [13]: 74.1 nM; GI50 [14]: 126 nM
